From article PMC12024912, “Druggability Studies of Benzene Sulfonamide Substituted Diarylamide (E3) as a Novel Diuretic” (Biomedicines, 2025)

What was measured:
mice [1] = assay: Long-term (7 d) diuretic activity in mice; type: in vivo, mouse
Protocol: In a single-dose administration experiment, male wild-type (WT) mice, UT-B^-/- mice, UT-A1^-/- mice, or SD rats were adapted in metabolic cages for 3 d. Food and water were provided ad libitum throughout the experiment. Prior to administration, the bladder of each animal was emptied through gentle abdominal massage, and urine was collected from the metabolic cages every 2 h. Compound E3, suspended in 0.5% CMC-Na at an appropriate concentration, was administered intragastric gavage to the mice or rats (0.16, 0.8, 4, or 20 mg/kg). Vehicle control comprised 0.5% (w/v) CMC-Na. Urinary parameters were determined through the following: volume: Gravimetric analysis (1 g/mL density assumption); osmolality: freezing-point osmometry (Micro-osmometer, […] Associates, Norwood, MA, USA); and urea: diacetyl oxime colorimetry (QuantiChrom® kit, Elabscience, Wuhan, China). In long-term (7 d) diuretic activity experiments, male WT mice, UT-B^-/- mice, UT-A1^-/- mice, and SD rats were acclimatized in metabolic cages (Ugo Basile, Comerio, VA, Italy) for 3 d. Food and water were provided ad libitum throughout the experiment. E3 was suspended in 0.5% CMC-Na and administered at a dose of 4 or 20 mg/kg by intragastric gavage. Urine was collected by metabolic cages every 24 h. Body weight was measured daily. At 4 h after the final administration, a blood sample was obtained by heart puncture. Inner medulla and outer medulla tissue homogenates were prepared, and the supernatant after centrifugation was analyzed for solute concentration and osmolality. Urinary osmolality and urea concentration were measured as above. Serum Na^+, K^+, and Cl^- were measured in a clinical chemistry laboratory, while serum creatinine, ALT, and AST were measured through specific reagent kits (NJJC Bio, Nanjing, China).

Blood stability, mouse = type: in vitro ADME; conditions: plasma, n=3
Protocol: (§1) Plasma from mice, rats, rabbits, and humans was obtained from blood after centrifugation at 3000 r/min for 10 min. Simulated gastric fluid (SGF, pH = 1, containing pepsin) and simulated intestinal fluid (SIF, pH = 6.8, containing trypsin) were configured previously in the experiments. SD rats and mice were collected, and after removing the mucus layer from the small intestine and colon, 20 times the volume of liquid bacterial culture medium was added. An intestinal microbiota suspension was obtained after anaerobic cultivation on a shaking table at 37 °C for 12 h. In the aforementioned systems, E3 was added at a final concentration of 1 μmol/L at 37 °C for different incubation times (0, 10, 20, 30, 60, 120, and 240 min). In liver metabolic stability assays, E3 was incubated with liver microsomes or liver homogenate from mice or rats for 60 min at 37 °C. The stop solution, 5 ng/mL tolbutamide (internal standard, IS) in acetonitrile, was added to stop the metabolic process. Post-centrifugation (18,000× g, 10 min, 4 °C), supernatants were subjected to liquid chromatography–tandem mass spectrometry (LC–MS/MS). Analyte-to-IS peak area ratios quantified residual percentages via Equation (2):Remaining% = (E3peak area/ISpeak area at different time)/(E3peak area/ISpeak area at 0 min) × 100%.(2)

Blood stability, human = type: in vitro ADME; conditions: plasma, n=3
Protocol: as §1

[2] = Acute oral toxicity test in mice; type: in vivo; conditions: both sexes, mouse, in vivo, 5000 mg/kg; mice; oral; 14-day acute toxicity assay
Protocol: (§2) The acute oral toxicity test was performed according to “Guidance on Single Dose Toxicity Study for Pharmaceuticals” (2014), “Guidance for industry: single dose acute toxicity testing for pharmaceuticals” (1996). The initial dose for preliminary trials was established at 5000 mg/kg. A total of three female and three male mice were utilized (one of each sex for preliminary experiments and two for subsequent experiments). Following a 12 h fasting period, one male and one female mouse were selected and administered E3. After 24 h of confirming survival and the absence of abnormal behavior, the remaining four animals were given the same dose. The control group was given solvent (0.5% CMC-Na). Observations of all animals on the day of dosing (d 0) and in the days following were recorded, including general conditions (signs of toxicity, onset of symptoms, recovery period), changes in body weight, and mortality. After 14 d, blood and vital organ tissues were collected, and serum biochemical indicators as well as histopathological examinations were conducted.

mice [3] = assay: Acute oral toxicity test in mice; type: in vivo
Protocol: as §2

[4] = UT-B−/− mice, long-term treatment
[5] = mice, oral 20 mg/kg, consecutive administrations

## CC(=O)c1ccc(C(=O)Nc2cccc(NS(=O)(=O)c3ccccc3)c2)o1 [Compound E3, 5-acetyl-N-(3-(phenylsulfonamido)phenyl)furan-2-carboxamide]
Mice [1]; UT-A1−/− mice, long-term treatment
  diuretic effect: no significant diuretic effect
Mice [1]; [4]
  urine osmolality: decreased
  urine output: increased
Mice [1]; [5]
  excretion of non-urea solutes: no significant difference
  urine osmolality: significantly decreased
  urine output: significantly increased
  urine urea concentration: significantly decreased
Blood stability, mouse
  remaining at 1 μmol/L: 45.3%
Blood stability, human
  remaining at 1 μmol/L: 54.1%
[2]
  LD50 at 14 d: > 5000 mg/kg
Mice [3]; female mice, 5g/kg, n=3
  Brain organ index: 1.72±0.10%
  Kidney organ index: 1.06±0.02%
  Liver organ index: 4.86±0.08%
  Lung organ index: 0.73±0.04%
  Ovary organ index: 0.11±0.02%
  Spleen organ index: 0.4±0.01%
  Thymus organ index: 0.27±0.06%
  Uterus organ index: 0.3±0.02%
Mice [3]; male mice, 5g/kg, n=3
  Brain organ index: 1.35±0.01%
  Epididymis organ index: 0.17±0.01%
  Kidney organ index: 1.26±0.02%
  Liver organ index: 5.16±0.12%
  Lung organ index: 0.72±0.02%
  Spleen organ index: 0.37±0.02%
  Testis organ index: 0.73±0.02%
  Thymus organ index: 0.25±0.01%
Mice [3]; mouse, in vivo, po, 5000 mg/kg
  H&E staining of heart, kidney, liver, spleen, and brain: no apparent abnormalities
  organ indexes: no significant difference
  representative blood biochemical indicators: not statistically altered
